Data reported in patent US11130741B2 (Bioimics AB, priority 2016, dated 2021).
In brackets after ≈: the same amount, converted by molar mass.

Experiments:
[1] = system: E. coli RNase P RNA, M1 RNA; assay: Inhibition of bacterial RNase P activity, IC50 determination (cleavage of pATSerUG by M1 RNA); format: biochemical; conditions: NI = No inhibition
[2] = system: Escherichia coli (ATCC25922); assay: MIC, broth microdilution (CLSI), Escherichia coli ATCC25922; conditions: ATCC25922, read-out: E. coli MIC, Table 15, NI = No inhibition
[3] = system: Staphylococcus aureus (ATCC25923); assay: MIC, broth microdilution (CLSI), Staphylococcus aureus ATCC25923; conditions: ATCC25923, read-out: S. aureus ("Clinical") MIC

SMILES	IC50 [1] [µM]	MIC [2] [µg/mL]	MIC [3] [µg/mL]	IC50 ([1]; trifluoroacetic Acid Salt) [µM]
N[C@H]1CCC[C@H](CNc2cc(C(F)(F)F)cc3c2Nc2ccccc2S3)C1.O=C(O)C(F)(F)F [compound 187, N-(((1S,3S)-3-aminocyclohexyl)methyl)-3-(trifluoromethyl)-10H-phenothiazin-1-amine 2,2,2-trifluoroacetate]	53	16	4	
NC[C@H]1CCC[C@H](CNc2cc(C(F)(F)F)cc3c2Nc2ccccc2S3)C1 [compound 189, N-(((1S,3S)-3-(aminomethyl)cyclohexyl)methyl)-3-(trifluoromethyl)-10H-phenothiazin-1-amine]	> 100	52 (≈ 128 µM)	3 (≈ 7.36 µM)	
NCCN1CC(C(=O)Nc2cc(C(F)(F)F)cc3c2Nc2ccccc2S3)C1 [compound 196]	> 100	52 (≈ 127 µM)	26 (≈ 63.7 µM)	
NCCN1CCC(C(=O)Nc2cc(C(F)(F)F)cc3c2Nc2ccccc2S3)CC1 [compound 199]	65	28 (≈ 64.1 µM)	28 (≈ 64.1 µM)	
NNC(=O)c1cc(NC2CCNCC2)c2c(c1)Sc1ccccc1N2.O=C(O)C(F)(F)F [compound 210, 1-(piperidin-4-ylamino)-10H-phenothiazine-3-carbohydrazide 2,2,2-trifluoroacetate salt]	95	> 100	60	
FC(F)(F)c1cc(NC2CCNCC2)c2c(c1)Sc1cc(-c3cc4ccccc4[nH]3)ccc1N2.O=C(O)C(F)(F)F [compound 212, 7-(1H-indol-2-yl)-N-(piperidin-4-yl)-3-(trifluoromethyl)-10H-phenothiazin-1-amine trifluoroacetic Acid Salt]		> 100	19	5
NCCN1CCC(Nc2cc(Cl)cc3c2Nc2ccccc2S3)CC1 [compound 214, N-(1-(2-aminoethyl)piperidin-4-yl)-3-chloro-10H-phenothiazin-1-amine]	> 100	24 (≈ 64 µM)	12 (≈ 32 µM)	
N#Cc1cc(NC2CCN(CCN)CC2)c2c(c1)Sc1ccccc1N2 [compound 215, 1-((1-(2-aminoethyl)piperidin-4-yl)amino)-10H-phenothiazine-3-carbonitrile]	> 100	47 (≈ 129 µM)	23 (≈ 62.9 µM)	
NCCN(CCN)CCN1CCC(Nc2cc(C(F)(F)F)cc3c2Nc2ccccc2S3)CC1.O=C(O)C(F)(F)F [compound 216, N1-(2-aminoethyl)-N1-(2-(4-((3-(trifluoromethyl)-10H-phenothiazin-1-yl)amino)piperidin-1-yl)ethyl)ethane-1,2-diamine 2,2,2-trifluoroacetate salt]	5	19	5	
NCCN1CCCC(CNc2cc(C(F)(F)F)cc3c2Nc2ccccc2S3)C1 (stereo not drawn) [compound 220, N-((1-(2-aminoethyl)piperidin-3-yl)methyl)-3-(trifluoromethyl)-10H-phenothiazin-1-amine]	> 100	7 (≈ 16.6 µM)	7 (≈ 16.6 µM)	
FC(F)(F)c1cc(NC2CCCNCC2)c2c(c1)Sc1ccccc1N2 (stereo not drawn) [compound 221, N-(azepan-4-yl)-3-(trifluoromethyl)-10H-phenothiazin-1-amine]	> 100	24 (≈ 63.2 µM)	6 (≈ 15.8 µM)	
NCCCN1c2ccccc2Sc2cc(-c3cc4ccccc4n3CCN)ccc21.O=C(O)C(F)(F)F.O=C(O)C(F)(F)F [compound 222, 3-(3-(1-(2-aminoethyl)-1H-indol-2-yl)-10H-phenothiazin-10-yl)propan-1-amine bis(2,2,2-trifluoroacetate) salt]	18	5	3	
CNCCN1CCC(Nc2cc(CN)cc3c2Nc2ccccc2S3)CC1.O=C(O)C(F)(F)F [compound 224, 3-(aminomethyl)-N-(1-(2-(methylamino)ethyl)piperidin-4-yl)-10H-phenothiazin-1-amine 2,2,2-trifluoroacetate salt]	68	64	64	
NCCN1CCCC(Nc2cc(C(F)(F)F)cc3c2Nc2ccccc2S3)CC1 (stereo not drawn) [compound 225, N-(1-(2-aminoethyl)azepan-4-yl)-3-(trifluoromethyl)-10H-phenothiazin-1-amine]	> 100	7 (≈ 16.6 µM)	3 (≈ 7.1 µM)	
NCCN1CCC(Nc2cc(C(F)(F)F)cc3c2Nc2ccc(CN)cc2S3)CC1.O=C(O)C(F)(F)F.O=C(O)C(F)(F)F [compound 227, N-(1-(2-Aminoethyl)piperidin-4-yl)-7-(aminomethyl)-3-(trifluoromethyl)-10H-phenothiazin-1-amine bis(2,2,2-trifluoroacetate)]	7	43	5	

The next lines start with results.

IC50 [1] [µM]	MIC [2] [µg/mL]	MIC [3] [µg/mL]	SMILES	IC50 ([1]; trifluoroacetic Acid Salt) [µM]
80	49 (≈ 129 µM)	24 (≈ 63.3 µM)	NC1CC(C(=O)Nc2cc(C(F)(F)F)cc3c2Nc2ccccc2S3)C1 (stereo not drawn) [compound 175, 3-amino-N-(3-(trifluoromethyl)-10H-phenothiazin-1-yl)cyclobutane-carboxamide]	
87	14 (≈ 36.9 µM)	7 (≈ 18.4 µM)	NC1CCC(Nc2cc(C(F)(F)F)cc3c2Nc2ccccc2S3)CC1 (stereo not drawn) [compound 180, N1-(3-(trifluoromethyl)-10H-phenothiazin-1-yl)cyclohexane-1,4-diamine]	
> 100	27 (≈ 63 µM)	7 (≈ 16.3 µM)	CN(C)CCCN1c2ccccc2Sc2cc(-c3cc4cc(CN)ccc4[nH]3)ccc21 [compound 181, 3-(3-(5-(aminomethyl)-1H-indol-2-yl)-10H-phenothiazin-10-yl)-N,N-dimethylpropan-1-amine]	
61	25 (≈ 63.5 µM)	3 (≈ 7.62 µM)	N[C@H]1CCC[C@@H](CNc2cc(C(F)(F)F)cc3c2Nc2ccccc2S3)C1 [compound 182, N-(((1R,3S)-3-aminocyclohexyl)methyl)-3-(trifluoromethyl)-10H-phenothiazin-1-amine]	
11	21 (≈ 63.3 µM)	5 (≈ 15.1 µM)	Clc1cc(NC2CCNCC2)c2c(c1)Sc1ccccc1N2 [compound 184, 3-chloro-N-(piperidin-4-yl)-10H-phenothiazin-1-amine]	
> 100	23 (≈ 62.9 µM)	12 (≈ 32.8 µM)	O=C(Nc1cc(C(F)(F)F)cc2c1Nc1ccccc1S2)C1CNC1 [compound 188, N-(3-(trifluoromethyl)-10H-phenothiazin-1-yl)azetidine-3-carboxamide]	
82	26 (≈ 63.8 µM)	3 (≈ 7.36 µM)	CC(Nc1cc(C(F)(F)F)cc2c1Nc1ccccc1S2)C1CCCC(N)C1 (stereo not drawn) [compound 190, N-(1-(3-aminocyclohexyl)ethyl)-3-(trifluoromethyl)-10H-phenothiazin-1-amine]	
19	50 (≈ 128 µM)	6 (≈ 15.4 µM)	NC1CCCC(c2nc3cc(C(F)(F)F)cc4c3n2-c2ccccc2S4)C1 (stereo not drawn) [compound 191, 3-(4-(trifluoromethyl)imidazo[4,5,1-kl]phenothiazin-1-yl)cyclohexan-amine]	
180	22 (≈ 65.2 µM)	5 (≈ 14.8 µM)	FC(F)(F)c1cc(NC2CNC2)c2c(c1)Sc1ccccc1N2 [compound 193, N-(azetidin-3-yl)-3-(trifluoromethyl)-10H-phenothiazin-1-amine]	
4	14 (≈ 32.1 µM)	14 (≈ 32.1 µM)	NCCN1CCCC(C(=O)Nc2cc(C(F)(F)F)cc3c2Nc2ccccc2S3)C1 (stereo not drawn) [compound 203]	
8	12 (≈ 31.6 µM)	3 (≈ 7.91 µM)	NC1CCCC(Nc2cc(C(F)(F)F)cc3c2Nc2ccccc2S3)C1 (stereo not drawn) [compound 204, N1-(3-(trifluoromethyl)-10H-phenothiazin-1-yl)cyclohexane-1,3-diamine]	
89	50 (≈ 127 µM)	25 (≈ 63.7 µM)	NCCN1CCC(Nc2cc(C(F)(F)F)cc3c2Nc2ccccc2O3)CC1 [compound 206, N-(1-(2-aminoethyl)piperidin-4-yl)-3-(trifluoromethyl)-10H-phenoxazin-1-amine]	
109	50 (≈ 127 µM)	25 (≈ 63.5 µM)	O=C(Nc1cc(C(F)(F)F)cc2c1Nc1ccccc1S2)C1CCNCC1 [compound 207, N-(3-(trifluoromethyl)-10H-phenothiazin-1-yl)piperidine-4-carboxamide]	
258	24 (≈ 63.1 µM)	12 (≈ 31.5 µM)	NCCN1CC(Nc2cc(C(F)(F)F)cc3c2Nc2ccccc2S3)C1 [compound 208, N-(1-(2-aminoethyl)azetidin-3-yl)-3-(trifluoromethyl)-10H-phenothiazin-1-amine]	
68	7 (≈ 16.6 µM)	7 (≈ 16.6 µM)	CN1c2ccccc2Sc2cc(C(F)(F)F)cc(NC3CCN(CCN)CC3)c21 [compound 218, N-(1-(2-aminoethyl)piperidin-4-yl)-10-methyl-3-(trifluoromethyl)-10H-phenothiazin-1-amine]	
24	6 (≈ 15 µM)	3 (≈ 7.5 µM)	FC(F)(F)c1cc(NC2CCNCC2)c2c(c1)Sc1cc(Cl)ccc1N2 [compound 223, 7-chloro-N-(piperidin-4-yl)-3-(trifluoromethyl)-10H-phenothiazin-1-amine]	
23	14 (≈ 31.6 µM)	4 (≈ 9.03 µM)	NCCN1CCC(Nc2cc(C(F)(F)F)cc3c2Nc2ccc(Cl)cc2S3)CC1 [compound 226, N-(1-(2-Aminoethyl)piperidin-4-yl)-7-chloro-3-(trifluoromethyl)-10H-phenothiazin-1-amine]	
29	24 (≈ 63.9 µM)	6 (≈ 16 µM)	FC(F)(F)c1cc2c3c(c1)nc(C1CCNCC1)n3-c1ccccc1S2 [compound 232, 1-(piperidin-4-yl)-4-(trifluoromethyl) imidazo[4,5,1-kl]phenothiazine]	
17	13 (≈ 31.1 µM)	7 (≈ 16.7 µM)	NCCN1CCC(c2nc3cc(C(F)(F)F)cc4c3n2-c2ccccc2S4)CC1 [compound 239, 2-(4-(4-(Trifluoromethyl)imidazo[4,5,1-kl]phenothiazin-1-yl)piperidin-1-yl)ethanamine]	
